# Source: PubChem BioAssay (NCI)
#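 Following 48 hours of exposure in 96-well plates, responses at five concentrations were used to interpolate endpoints linearly. TGI is the concentration that stops growth completely.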 Where a SMILES comes first, the peptide text is derived from it. [ ]: non-standard residue; d: D form. The star is where a group is joined. Phe(4-NO2) = N[CH](Cc1ccc([N+](=O)[O-])cc1)C(=O)O; Boc = CC(C)(C)OC(=O)*; OtBu = CC(C)(C)O*
# Key:
# Test in all cases: NCI anticancer screen, dose series, 48 h
# [1] = tested on: UACC-62 melanoma
# [2] = tested on: SNB-75 CNS
# [3] = tested on: T-47D breast
# [4] = tested on: NCI-H23 lung
# [5] = tested on: SF-539 CNS
# [6] = tested on: M14 melanoma
# [7] = tested on: SN12C renal
# [8] = tested on: MDA-MB-231 breast
# [9] = tested on: NCI-H522 lung
# [10] = tested on: HT29 colon
# [11] = tested on: K-562 leukemia
# [12] = tested on: HOP-92 NSCLC
# [13] = tested on: RPMI-8226 leukemia
# [14] = tested on: EKVX NSCLC
# [15] = tested on: MDA-N
# [16] = tested on: DU-145 prostate
# [17] = tested on: ACHN renal
# [18] = tested on: SF-295 CNS
# [19] = tested on: LOX IMVI melanoma
# [20] = tested on: TK-10 renal
# [21] = tested on: HCT-116 colon
# [22] = tested on: 786-0 renal
# [23] = tested on: SW-620 colon
# [24] = tested on: OVCAR-8 ovarian
# [25] = tested on: OVCAR-3 ovarian
# [26] = tested on: MALME-3M melanoma
# [27] = tested on: OVCAR-5 ovarian
# [28] = tested on: HS 578T breast
# [29] = tested on: OVCAR-4 ovarian
# [30] = tested on: A498 renal
# [31] = tested on: RXF 393 renal
# [32] = tested on: COLO 205 colon
# [33] = tested on: PC-3 prostate
# [34] = tested on: HCT-15 colon
# [35] = tested on: KM12 colon
# [36] = tested on: CCRF-CEM leukemia
# [37] = tested on: NCI-H226 lung
# [38] = tested on: SNB-19 CNS
# [39] = tested on: UO-31 renal
# [40] = tested on: U251 CNS
# [41] = tested on: SK-MEL-2 melanoma
# [42] = tested on: MOLT-4 leukemia
# [43] = tested on: HCC-2998 colon
# [44] = tested on: CAKI-1 renal
# [45] = tested on: MCF7 breast
# [46] = tested on: HL-60(TB) leukemia
# [47] = tested on: MDA-MB-435
# [48] = tested on: SK-OV-3 ovarian
# [49] = tested on: SK-MEL-28 melanoma
# [50] = tested on: SF-268 CNS
# [51] = tested on: SK-MEL-5 melanoma
# [52] = tested on: HOP-62 NSCLC
# [53] = tested on: A549 NSCLC
# [54] = tested on: UACC-257 melanoma
# [55] = tested on: NCI-H460 lung
# [56] = tested on: IGROV1 ovarian
# [57] = tested on: NCI/ADR-RES ovarian
# [58] = tested on: SR leukemia
structure (smiles),measurement,setting,value
C=C(CN(C)C)C1(c2ccccc2)CC2(CCCC2)C(=O)O1 (configuration not stated),TGI,[1],> 100 µM
same,TGI,[2],> 100 µM
same,TGI,[3],> 100 µM
same,TGI,[4],82.4 µM
same,TGI,[5],> 100 µM
same,TGI,[6],> 100 µM
same,TGI,[7],> 100 µM
same,TGI,[8],> 100 µM
same,TGI,[9],47.5 µM
same,TGI,[10],74.7 µM
same,TGI,[11],> 100 µM
same,TGI,[12],56.1 µM
same,TGI,[13],> 100 µM
same,TGI,[14],> 100 µM
same,TGI,[15],> 100 µM
same,TGI,[16],> 100 µM
same,TGI,[17],> 100 µM
same,TGI,[18],> 100 µM
same,TGI,[19],> 100 µM
same,TGI,[20],> 100 µM
same,TGI,[21],> 100 µM
same,TGI,[22],> 100 µM
same,TGI,[23],> 100 µM
same,TGI,[24],> 100 µM
same,TGI,[25],> 100 µM
same,TGI,[26],> 100 µM
same,TGI,[27],> 100 µM
same,TGI,[28],> 100 µM
same,TGI,[29],> 100 µM
same,TGI,[30],> 100 µM
same,TGI,[31],> 100 µM
same,TGI,[32],74.7 µM
same,TGI,[33],> 100 µM
same,TGI,[34],> 100 µM
same,TGI,[35],> 100 µM
same,TGI,[36],53.4 µM
same,TGI,[37],> 100 µM
same,TGI,[38],> 100 µM
same,TGI,[39],62.9 µM
same,TGI,[40],> 100 µM
same,TGI,[41],> 100 µM
same,TGI,[42],78.1 µM
same,TGI,[43],> 100 µM
same,TGI,[44],> 100 µM
same,TGI,[45],> 100 µM
same,TGI,[46],53.8 µM
same,TGI,[47],> 100 µM
same,TGI,[48],> 100 µM
same,TGI,[49],> 100 µM
same,TGI,[50],> 100 µM
same,TGI,[51],> 100 µM
same,TGI,[52],> 100 µM
same,TGI,[53],> 100 µM
same,TGI,[54],> 100 µM
same,TGI,[55],> 100 µM
same,TGI,[56],> 100 µM
O=C(N=Nc1ccc(Br)cc1)NNc1ccc(Br)cc1,TGI,[1],27.2 µM
same,TGI,[2],61.9 µM
same,TGI,[3],> 100 µM
same,TGI,[4],68.9 µM
same,TGI,[6],31.8 µM
same,TGI,[8],47.2 µM
same,TGI,[9],31 µM
same,TGI,[10],33.1 µM
same,TGI,[11],25 µM
same,TGI,[12],30.7 µM
same,TGI,[13],78 µM
same,TGI,[15],64.7 µM
same,TGI,[16],> 100 µM
same,TGI,[18],> 100 µM
same,TGI,[21],31.3 µM
same,TGI,[24],> 100 µM
same,TGI,[25],30.5 µM
same,TGI,[26],87.1 µM
same,TGI,[27],57.1 µM
same,TGI,[30],> 100 µM
same,TGI,[31],28.7 µM
same,TGI,[32],48.9 µM
same,TGI,[33],31.9 µM
same,TGI,[34],58.2 µM
same,TGI,[35],35.1 µM
same,TGI,[36],18.2 µM
same,TGI,[37],47.1 µM
same,TGI,[38],> 100 µM
same,TGI,[57],43.3 µM
same,TGI,[39],65.2 µM
same,TGI,[40],34.7 µM
same,TGI,[41],37.9 µM
same,TGI,[42],26 µM
same,TGI,[43],55.7 µM
same,TGI,[44],52.9 µM
same,TGI,[45],40.8 µM
same,TGI,[58],> 100 µM
same,TGI,[46],> 100 µM
same,TGI,[47],46.1 µM
same,TGI,[48],74 µM
same,TGI,[49],64.5 µM
same,TGI,[51],26.9 µM
same,TGI,[52],32.6 µM
same,TGI,[55],44 µM
same,TGI,[56],64.7 µM
CC(=O)NC(CCC(=O)OC(C)(C)C)C(=O)NC(CCC(=O)OC(C)(C)C)C(=O)NC(Cc1ccc([N+](=O)[O-])cc1)C(=O)NC(CCCCNC(=O)OC(C)(C)C)C(=O)NC(CCCCNC(=O)OC(C)(C)C)C(=O)NCC(=O)O (configuration not stated) (Ac-E(OtBu)E(OtBu)[Phe(4-NO2)]K(Boc)K(Boc)G-OH; configuration not given here),TGI,[1],> 100 µM
same,TGI,[2],> 100 µM
same,TGI,[3],> 100 µM
same,TGI,[4],> 100 µM
same,TGI,[5],> 100 µM
same,TGI,[6],53.5 µM
same,TGI,[7],> 100 µM
same,TGI,[8],> 100 µM
same,TGI,[9],> 100 µM
same,TGI,[10],> 100 µM
same,TGI,[11],> 100 µM
same,TGI,[12],> 100 µM
same,TGI,[13],> 100 µM
same,TGI,[14],> 100 µM
same,TGI,[15],> 100 µM
same,TGI,[16],> 100 µM
same,TGI,[17],> 100 µM
same,TGI,[18],> 100 µM
same,TGI,[19],> 100 µM
same,TGI,[20],> 100 µM
same,TGI,[21],> 100 µM
same,TGI,[22],> 100 µM
same,TGI,[23],> 100 µM
same,TGI,[24],> 100 µM
same,TGI,[25],> 100 µM
same,TGI,[26],> 100 µM
same,TGI,[27],> 100 µM
same,TGI,[29],> 100 µM
same,TGI,[31],> 100 µM
same,TGI,[32],> 100 µM
same,TGI,[33],> 100 µM
same,TGI,[34],> 100 µM
same,TGI,[35],> 100 µM
same,TGI,[36],> 100 µM
same,TGI,[37],> 100 µM
same,TGI,[38],> 100 µM
same,TGI,[57],> 100 µM
same,TGI,[39],> 100 µM
same,TGI,[40],> 100 µM
same,TGI,[41],> 100 µM
same,TGI,[42],> 100 µM
same,TGI,[43],> 100 µM
same,TGI,[44],> 100 µM
same,TGI,[45],> 100 µM
same,TGI,[58],> 100 µM
same,TGI,[46],> 100 µM
same,TGI,[47],> 100 µM
same,TGI,[48],> 100 µM
same,TGI,[49],> 100 µM
same,TGI,[50],> 100 µM
same,TGI,[51],> 100 µM
same,TGI,[52],> 100 µM
same,TGI,[53],> 100 µM
same,TGI,[54],> 100 µM
same,TGI,[55],> 100 µM
same,TGI,[56],> 100 µM
